Measurements published in patent publication US9580390B2, “Indazole compounds as kinase inhibitors and method of treating cancer with same” (University Health Network, priority 2011, dated 2017).

Tests used:
human TTK = target: T1, human TTK (Homo sapiens, UniProt P33981); experiment: TTK inhibition assay (indirect ELISA); type: biochemical; conditions: read-out: TTK IC50 Range
T1 construct: amino terminal GST fusion of full length human TTK; purchased Invitrogen
T1 sequence (P33981 1-857): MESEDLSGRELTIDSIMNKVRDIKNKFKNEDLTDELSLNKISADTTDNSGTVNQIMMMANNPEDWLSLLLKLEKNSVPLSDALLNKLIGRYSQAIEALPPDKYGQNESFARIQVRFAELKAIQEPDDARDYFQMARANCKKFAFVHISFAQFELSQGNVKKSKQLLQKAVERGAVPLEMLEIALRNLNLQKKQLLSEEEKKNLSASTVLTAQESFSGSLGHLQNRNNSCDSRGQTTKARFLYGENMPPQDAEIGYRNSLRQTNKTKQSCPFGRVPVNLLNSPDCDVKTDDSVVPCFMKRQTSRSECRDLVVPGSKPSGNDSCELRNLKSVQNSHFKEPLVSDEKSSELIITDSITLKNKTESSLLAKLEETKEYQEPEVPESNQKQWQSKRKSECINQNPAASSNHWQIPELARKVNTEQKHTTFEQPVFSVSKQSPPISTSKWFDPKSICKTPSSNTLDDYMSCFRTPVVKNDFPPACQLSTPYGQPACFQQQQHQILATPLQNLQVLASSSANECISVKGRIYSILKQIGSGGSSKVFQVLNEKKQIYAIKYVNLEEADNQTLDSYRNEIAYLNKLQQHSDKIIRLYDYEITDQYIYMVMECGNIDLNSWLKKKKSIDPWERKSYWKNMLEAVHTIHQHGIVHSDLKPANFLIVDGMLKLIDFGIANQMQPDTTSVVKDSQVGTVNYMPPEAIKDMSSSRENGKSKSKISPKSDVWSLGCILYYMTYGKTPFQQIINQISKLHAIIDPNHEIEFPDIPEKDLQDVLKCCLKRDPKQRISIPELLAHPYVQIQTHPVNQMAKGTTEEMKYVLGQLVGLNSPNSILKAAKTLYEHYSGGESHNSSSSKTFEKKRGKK
Protocol: Active TTK was purchased from Invitrogen as an amino terminal GST fusion of full length human TTK. Amino terminal 6 histidine, sumo tagged human TTK (residues 1-275) was expressed in E. coli, and purified to >95% homogeneity by Ni^2+ agarose, gel filtration, and ion exchange chromatography.
TTK activity was measured using an indirect ELISA detection system. GST-TTK (0.68 nM) was incubated in the presence of 16 μM ATP (Sigma cat# A7699), 50 mM Hepes pH 7.2, 1 mM EGTA, 10 mM MgCl2, and 0.1% Pluronic in a 96 well microtitre plate pre-coated with amino terminal 6 histidine, sumo tagged TTK (amino acid residues 1-275). The reaction was allowed to proceed for 30 minutes, followed by 5 washes of the plate with Wash Buffer (phosphate buffered saline supplemented with 0.2% Tween 20), and incubation for 30 minutes with a 1:3000 dilution of primary antibody (Cell Signaling cat# 9381). The plate was washed 5 times with Wash Buffer, incubated for 30 minutes in the presence of secondary antibody coupled to horse radish peroxidase (BioRad cat# 1721019, 1:3000 concentration), washed an additional 5 times with Wash Buffer, and incubated in the presence of TMB substrate (Sigma cat# T0440). The colourimetric reaction was allowed to continue for 5 minutes, followed by addition of stop solution (0.5 N sulphuric acid), and quantified by detection at 450 nm with either a monochromatic or filter based plate reader (Molecular Devices M5 or Beckman DTX880, respectively).
Compounds were pre-incubated in the presence of enzyme for 5 minutes prior to addition of ATP and the activity remaining quantified using the above described activity assay. The % Inhibition of a compound was determined using the following formula: % Inhibition=100×(1−(experimental value−background value)/(high activity control−background value)). The IC50 value was determined using a non-linear 4 point logistic curve fit (XLfit4, IDBS) with the formula: (A+(B/(1+((x/C)^D)))), where A=background value, B=range, C=inflection point, D=curve fit parameter.

Breast cancer cells = experiment: Cancer cell line growth inhibition (SRB assay); type: cell-based; conditions: Homo sapiens; MDA-MB-468; read-out: Cancer Cell Line GI50 Range MDA-MB-468
[1] = test system: colon cancer cells (HCT116); experiment: Cancer cell line growth inhibition (SRB assay); type: cell-based; conditions: Homo sapiens, HCT-116; read-out: Cancer Cell Line GI50 Range HCT116
[2] = test system: ovarian cancer cells (PA-1); experiment: Cancer cell line growth inhibition (SRB assay); type: cell-based; conditions: Homo sapiens, PA-1; read-out: Cancer Cell Line GI50 Range PA-1
TICs (Colon 12) = experiment: Colon tumor-initiating cell growth inhibition (Alamar Blue); type: cell-based; conditions: 216 h; Colon 12 TICs, 9 days; read-out: Tumor Initiating Cell GI50 Range Colon 12
TICs (Ovarian 2393A) = experiment: Ovarian tumor-initiating cell growth inhibition (Alamar Blue); type: cell-based; conditions: 144 h; Ovarian 2393A TICs, 6 days; read-out: Tumor Initiating Cell GI50 Range Ovarain 2393A
human PLK4 = target: T2, human PLK4 (Homo sapiens, UniProt O00444); experiment: PLK4 inhibition assay (indirect ELISA); type: biochemical; conditions: 15 μM ATP
T2 construct: amino terminal GST fusion of residues 1-391 of human PLK4; made in house; host or cells: E. coli
T2 sequence (O00444 1-391): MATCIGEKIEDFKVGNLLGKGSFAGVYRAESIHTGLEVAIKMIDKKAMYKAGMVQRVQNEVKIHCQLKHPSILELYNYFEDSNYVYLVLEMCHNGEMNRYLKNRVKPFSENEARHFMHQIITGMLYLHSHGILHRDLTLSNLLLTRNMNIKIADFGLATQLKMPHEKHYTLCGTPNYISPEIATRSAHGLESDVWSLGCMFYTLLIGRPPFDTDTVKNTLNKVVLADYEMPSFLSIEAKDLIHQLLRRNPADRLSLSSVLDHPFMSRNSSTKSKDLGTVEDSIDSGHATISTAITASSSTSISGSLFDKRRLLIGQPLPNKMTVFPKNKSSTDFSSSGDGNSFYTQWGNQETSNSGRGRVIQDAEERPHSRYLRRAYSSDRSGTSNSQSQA
Method in brief: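 Dephosphorylated GST-PLK4 (residues 1-391, E. coli; 4 nM) was preincubated 15 min with compound, then reacted 30 min with 15 μM ATP in HEPES pH 7.4, MgCl2, Brij 35 on MBP-coated plates. Phospho-MBP was detected by antibody/HRP ELISA at 450 nm; IC50 from 10-point titration by 4-parameter logistic fit, or single 10 μM % inhibition.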

| Compound | IC50 (human TTK) | GI50 (Breast cancer cells) | GI50 [1] | GI50 [2] | GI50 (TICs (Colon 12)) | GI50 (TICs (Ovarian 2393A)) | IC50 (human PLK4) |
| --- | --- | --- | --- | --- | --- | --- | --- |
| CC(C)[C@H](NC(=O)c1ccc2[nH]nc(-c3ccc(OC4CC5CCC(C4)N5C)cc3)c2c1)c1ccccc1Cl (stereo partly drawn) [Example A287, N-((S)-1-(2-chlorophenyl)-2-methylpropyl)-3-(4-(((1R,3R,5S)-8-methyl-8-azabicyclo[3.2.1]octan-3-yl)oxy)phenyl)-1H-indazole-5-carboxamide] | < 100 nM | < 100 nM | < 100 nM | < 100 nM | 100 to 500 nM | 100 to 500 nM | < 50 nM |
| CC(C)[C@@H](NC(=O)c1ccc2[nH]nc(-c3ccc(OC4CC5CCC(C4)N5C)cc3)c2c1)c1ccccc1Cl (stereo partly drawn) [Example A288, N-((R)-1-(2-chlorophenyl)-2-methylpropyl)-3-(4-(((1R,3R,5S)-8-methyl-8-azabicyclo[3.2.1]octan-3-yl)oxy)phenyl)-1H-indazole-5-carboxamide] | < 100 nM | 100 to 500 nM | < 100 nM | 100 to 500 nM | 100 to 500 nM | 100 to 500 nM | < 50 nM |
| CC(C)CC(NC(=O)c1ccc2[nH]nc(-c3ccc(N4CCN(C5COC5)CC4)cc3)c2c1)c1ccccc1Cl (stereo not drawn) [Example A298, N-(1-(2-chlorophenyl)-3-methylbutyl)-3-(4-(4-(oxetan-3-yl)piperazin-1-yl)phenyl)-1H-indazole-5-carboxamide] | < 100 nM | < 100 nM | < 100 nM | < 100 nM | < 100 nM | < 100 nM | < 50 nM |
| CC(C)C[C@H](NC(=O)c1ccc2[nH]nc(-c3ccc(N4CCN(C5COC5)CC4)cc3)c2c1)c1ccccc1Cl [Example A299, (S)-N-(1-(2-chlorophenyl)-3-methylbutyl)-3-(4-(4-(oxetan-3-yl)piperazin-1-yl)phenyl)-1H-indazole-5-carboxamide] | < 100 nM | < 100 nM | < 100 nM | < 100 nM | < 100 nM | < 100 nM | < 50 nM |
| CC(C)[C@H](NC(=O)c1ccc2[nH]nc(-c3ccc(OC4CC5CCC(C4)N5CCO)cc3)c2c1)c1ccccc1Cl (stereo partly drawn) [Example A337, N-((S)-1-(2-chlorophenyl)-2-methylpropyl)-3-(4-(((1R,3R,5S)-8-(2-hydroxyethyl)-8-azabicyclo[3.2.1]octan-3-yl)oxy)phenyl)-1H-indazole-5-carboxamide] | < 100 nM | < 100 nM | < 100 nM | < 100 nM | < 100 nM | < 100 nM | < 50 nM |
| CC(C)C[C@H](NC(=O)c1ccc2[nH]nc(-c3ccc(OC4CC5CCC(C4)N5C=O)cc3)c2c1)c1ccccn1 (stereo partly drawn) [Example A358, 3-(4-(((1R,3R,5S)-8-formyl-8-azabicyclo[3.2.1]octan-3-yl)oxy)phenyl)-N-((S)-3-methyl-1-(pyridin-2-yl)butyl)-1H-indazole-5-carboxamide] | < 100 nM | < 100 nM | < 100 nM | < 100 nM | < 100 nM | < 100 nM | < 50 nM |
